From US7432260B2, “Pyrimidine compounds” (Cyclacel Limted, priority 2002, dated 2008)
Where two headings read alike, the source gives them in different places.

Key:
CDK1/cyclin B = CDK1/cyclin B (Homo sapiens, UniProt P06493); assay: Kinase assay CDK1/cyclin B; type: biochemical
How it was run: (§1)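 Radiometric kinase assays with recombinant enzymes (2-4 μg) and polypeptide substrates in β-glycerophosphate/MOPS/EGTA buffer, pH 7.4. Started with 15 mM MgCl2 + 100 μM ATP containing [γ-32P]-ATP, incubated at 30° C; incorporated 32P captured on filterplates and counted. Compounds diluted in 10% DMSO assay buffer.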

CDK2/cyclin E = CDK2/cyclin E (Homo sapiens, UniProt P24941); assay: Kinase assay CDK2/cyclin E; type: biochemical
How it was run: as §1

HT29 = assay: 72-h MTT cytotoxicity assay HT29; type: cell-based; conditions: Homo sapiens, HT-29, 72 h
How it was run: (§2)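 Read-out is MTT formazan dissolved in DMSO after a 4 h dark incubation with dye at 37° C. Before that, cells seeded according to doubling time received a 1/3 dilution series of compound in triplicate for 72 h at 37° C.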

GSK-3β = GSK-3β (Homo sapiens, UniProt P49841); assay: Kinase assay GSK-3β; type: biochemical
How it was run: as §1

CDK4/cyclin D1 = CDK4/cyclin D1 (Homo sapiens, UniProt P11802); assay: Kinase assay CDK4/cyclin D1; type: biochemical
How it was run: as §1

A549 = assay: 72-h MTT cytotoxicity assay A549; type: cell-based; conditions: Homo sapiens, A549, 72 h
How it was run: as §2

CDK7/cyclin H = CDK7/cyclin H (Homo sapiens, UniProt P50613); assay: CDK7 assay; type: biochemical
How it was run: (§3)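 Recombinant human CDK7/cyclin H or CDK9/cyclin T1 (0.5–2 μg) phosphorylated biotinylated CTD heptapeptide-repeat substrate for 45 min at 30 °C in MOPS pH 7.2 buffer with 15 mM MgCl2 and 100 μM ATP plus [γ-32P]ATP. After avidin capture on P81 filters and phosphoric acid washes, 32P incorporation was counted by scintillation.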

Saos-2 = assay: 72-h MTT cytotoxicity assay Saos-2; type: cell-based; conditions: Homo sapiens, SAOS-2, 72 h
How it was run: as §2

CDK9/cyclin T1 = CDK9/cyclin T1 (Homo sapiens, UniProt P50750); assay: CDK9 assay; type: biochemical
How it was run: as §3

AGS = assay: 72-h MTT cytotoxicity assay AGS; type: cell-based; conditions: Homo sapiens, Table 5, Gastric adenocarcinoma
Experimental: (§4) MTT cytotoxicity assay. […] Standard 72-h MTT (thiazolyl blue; 3-[4,5-dimethylthiazol-2-yl]-2,5-diphenyltetrazolium bromide) assays were performed (Haselsberger, K.; Peterson, D. C.; Thomas, D. G.; Darling, J. L. Anti Cancer Drugs 1996, 7, 331-8; Loveland, B. E.; Johns, T. G.; Mackay, I. R.; Vaillant, F.; Wang, Z. X.; Hertzog, P. J. Biochemistry International 1992, 27, 501-10). In short: cells were seeded into 96-well plates according to doubling time and incubated overnight at 37° C. Test compounds were made up in DMSO and a 1/3 dilution series prepared in 100 μL cell media, added to cells (in triplicates) and incubated for 72 ho at 37° C. MTT was made up as a stock of 5 mg/mL in cell media and filter-sterilised. Media was removed from cells followed by a wash with 200 μL PBS.
(§5) MTT solution was then added at 20 μL per well and incubated in the dark at 37° C. for 4 h. MTT solution was removed and cells again washed with 200 μL PBS. MTT dye was solubilised with 200 μL per well of DMSO with agitation.

WI38 = assay: 72-h MTT cytotoxicity assay WI38; type: cell-based; conditions: Homo sapiens, WI-38, 72 h; Table 5; Foetal lung fibroblast (non-transformed)
Experimental: as §4, §5

all transformed cells = assay: 72-h MTT cytotoxicity assay, summary over all transformed cells; type: cell-based; conditions: Homo sapiens
Experimental: as §4, §5

IMR-90 = assay: 72-h MTT cytotoxicity assay IMR-90; type: cell-based; conditions: Homo sapiens, IMR-90, 72 h; Table 5; Foetal lung fibroblast (non-transformed)
Experimental: as §4, §5

HCT-116 = assay: 72-h MTT cytotoxicity assay HCT-116; type: cell-based; conditions: Homo sapiens, HCT-116, 72 h; Table 5; Colon
Experimental: as §4, §5

[1] = target: Akt/PKB (protein kinase B) (Homo sapiens, UniProt P31749); assay: Kinase assay Akt/PKB; type: biochemical; conditions: Table 3 selectivity panel; read-out: Kinase specificity IC50 Akt/PKB
Experimental: (§6) Kinase assays. […] This was achieved by measurement of incorporation of radioactive phosphate from ATP into appropriate polypeptide substrates. Recombinant protein kinases and kinase complexes were produced or obtained commercially. Assays were performed using 96-well plates and appropriate assay buffers (typically 25 mM β-glycerophosphate, 20 mM MOPS, 5 mM EGTA, 1 mM DTT, 1 mM […], pH 7.4), into which were added 2-4 μg of active enzyme with appropriate substrates. The reactions were initiated by addition of Mg/ATP mix (15 mM MgCl2+100 μM ATP with 30-50 kBq per well of [γ-^32P]-ATP) and mixtures incubated as required at 30° C. Reactions were stopped on ice, followed by filtration through p81 filterplates or GF/C filterplates (Whatman Polyfiltronics, Kent, UK). After washing 3 times with 75 mM aq orthophosphoric acid, plates were dried, scintillant added and incorporated radioactivity measured in a scintillation counter (TopCount, Packard Instruments, Pangbourne, Berks, UK). Compounds for kinase assay were made-up as 10 mM stocks in DMSO and diluted into 10% DMSO inrassay buffer.

[2] = target: CaMKII (calmodulin-depependent kinase II); assay: Kinase assay CaMKII; type: biochemical; conditions: Table 3 selectivity panel; read-out: Kinase specificity IC50 CaMKII
Experimental: as §6

[3] = target: Abl (Ableson tyrosine kinase) (Homo sapiens, UniProt P00519); assay: Kinase assay Abl; type: biochemical; conditions: Table 3 selectivity panel; read-out: Kinase specificity IC50 Abl
Experimental: as §6

[4] = Table 2, read-out: Kinase Inhibition IC50 CDK1 cyclin B
[5] = Table 2, read-out: Kinase Inhibition IC50 CDK2 cyclin E
[6] = Table 2, read-out: Kinase Inhibition IC50 GSK-3β
[7] = Table 2, read-out: Kinase Inhibition IC50 CDK4 cyclin D1
[8] = Table 2, read-out: Kinase Inhibition IC50 CDK7 cyclin H
[9] = Table 2, read-out: Kinase Inhibition IC50 CDK9 cyclin T1
[10] = Table 5, average over transformed cell lines, read-out: 72-h MTT IC50 Average (all transformed cells)
[11] = Table 5, median over transformed cell lines, read-out: 72-h MTT IC50 Median (all transformed cells)
[12] = Table 3 selectivity panel, CDK7/cyclin H/MAT 1 complex, read-out: Kinase specificity IC50 CDK7/H
[13] = Table 3 selectivity panel, read-out: Kinase specificity IC50 CDK1/B1
[14] = Table 3 selectivity panel, read-out: Kinase specificity IC50 CDK2/E
[15] = Table 3 selectivity panel, glycogen synthase kinase 3β, read-out: Kinase specificity IC50 GSK-3
[16] = Table 3 selectivity panel, read-out: Kinase specificity IC50 CDK4/D1
[17] = Table 3 selectivity panel, read-out: Kinase specificity IC50 CDK9/T1

Sequence of CDK7/cyclin H (P50613 whole entry): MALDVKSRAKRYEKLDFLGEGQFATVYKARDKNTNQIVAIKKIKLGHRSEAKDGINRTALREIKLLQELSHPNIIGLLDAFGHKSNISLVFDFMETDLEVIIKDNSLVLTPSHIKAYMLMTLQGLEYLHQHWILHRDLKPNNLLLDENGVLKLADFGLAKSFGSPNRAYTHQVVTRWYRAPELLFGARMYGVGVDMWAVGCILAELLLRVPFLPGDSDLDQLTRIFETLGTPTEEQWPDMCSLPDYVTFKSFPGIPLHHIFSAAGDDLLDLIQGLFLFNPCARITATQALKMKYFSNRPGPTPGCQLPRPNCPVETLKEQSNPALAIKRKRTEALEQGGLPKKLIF
Sequence of CDK4/cyclin D1 (P11802 whole entry): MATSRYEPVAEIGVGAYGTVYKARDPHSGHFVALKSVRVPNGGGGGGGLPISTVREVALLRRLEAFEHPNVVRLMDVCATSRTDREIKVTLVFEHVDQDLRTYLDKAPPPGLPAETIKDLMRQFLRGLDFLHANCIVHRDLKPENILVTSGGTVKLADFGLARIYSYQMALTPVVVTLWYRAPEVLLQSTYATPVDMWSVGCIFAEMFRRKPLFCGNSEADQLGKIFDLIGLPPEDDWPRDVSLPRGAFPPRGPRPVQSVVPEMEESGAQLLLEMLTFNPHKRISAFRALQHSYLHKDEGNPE
Sequence of CDK4/cyclin D1 (P24385 whole entry partner): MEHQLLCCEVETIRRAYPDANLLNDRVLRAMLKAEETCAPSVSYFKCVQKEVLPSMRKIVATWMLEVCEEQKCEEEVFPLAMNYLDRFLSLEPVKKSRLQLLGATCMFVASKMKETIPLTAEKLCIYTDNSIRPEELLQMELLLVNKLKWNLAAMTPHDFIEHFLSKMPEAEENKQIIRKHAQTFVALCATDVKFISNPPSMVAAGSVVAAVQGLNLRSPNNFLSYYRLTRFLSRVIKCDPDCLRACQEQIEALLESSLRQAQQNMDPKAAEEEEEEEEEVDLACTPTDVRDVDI
Sequence of CDK9/cyclin T1 (P50750 whole entry): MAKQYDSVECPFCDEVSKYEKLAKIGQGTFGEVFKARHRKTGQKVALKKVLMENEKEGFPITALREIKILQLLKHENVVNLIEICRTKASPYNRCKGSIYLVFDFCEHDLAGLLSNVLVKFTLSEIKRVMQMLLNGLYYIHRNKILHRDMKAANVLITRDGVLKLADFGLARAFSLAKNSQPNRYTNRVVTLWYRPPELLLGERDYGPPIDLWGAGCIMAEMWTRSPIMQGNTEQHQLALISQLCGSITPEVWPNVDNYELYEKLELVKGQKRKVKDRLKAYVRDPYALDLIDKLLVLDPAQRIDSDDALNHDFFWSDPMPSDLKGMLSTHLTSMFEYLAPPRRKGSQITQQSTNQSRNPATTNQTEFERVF
Sequence of CDK9/cyclin T1 (O60563 whole entry partner): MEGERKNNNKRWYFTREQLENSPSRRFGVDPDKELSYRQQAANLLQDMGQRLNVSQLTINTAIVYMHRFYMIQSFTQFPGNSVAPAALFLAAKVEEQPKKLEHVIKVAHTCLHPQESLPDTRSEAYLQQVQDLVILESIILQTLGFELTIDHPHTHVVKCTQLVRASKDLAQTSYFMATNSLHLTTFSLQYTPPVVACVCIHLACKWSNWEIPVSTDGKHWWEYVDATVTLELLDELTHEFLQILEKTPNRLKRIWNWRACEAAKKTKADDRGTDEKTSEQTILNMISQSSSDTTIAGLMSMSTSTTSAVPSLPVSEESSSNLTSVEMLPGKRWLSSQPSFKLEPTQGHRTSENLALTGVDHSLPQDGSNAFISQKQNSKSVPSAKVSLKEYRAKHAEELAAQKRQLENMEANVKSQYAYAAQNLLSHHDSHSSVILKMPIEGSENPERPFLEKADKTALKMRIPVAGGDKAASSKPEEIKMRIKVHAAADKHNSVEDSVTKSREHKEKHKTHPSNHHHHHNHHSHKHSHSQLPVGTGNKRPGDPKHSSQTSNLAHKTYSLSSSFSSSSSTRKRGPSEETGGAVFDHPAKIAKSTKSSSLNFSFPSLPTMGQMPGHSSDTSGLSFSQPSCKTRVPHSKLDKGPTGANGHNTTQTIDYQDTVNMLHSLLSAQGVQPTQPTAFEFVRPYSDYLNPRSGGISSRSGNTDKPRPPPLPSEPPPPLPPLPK
Sequence of GSK-3β (P49841 whole entry): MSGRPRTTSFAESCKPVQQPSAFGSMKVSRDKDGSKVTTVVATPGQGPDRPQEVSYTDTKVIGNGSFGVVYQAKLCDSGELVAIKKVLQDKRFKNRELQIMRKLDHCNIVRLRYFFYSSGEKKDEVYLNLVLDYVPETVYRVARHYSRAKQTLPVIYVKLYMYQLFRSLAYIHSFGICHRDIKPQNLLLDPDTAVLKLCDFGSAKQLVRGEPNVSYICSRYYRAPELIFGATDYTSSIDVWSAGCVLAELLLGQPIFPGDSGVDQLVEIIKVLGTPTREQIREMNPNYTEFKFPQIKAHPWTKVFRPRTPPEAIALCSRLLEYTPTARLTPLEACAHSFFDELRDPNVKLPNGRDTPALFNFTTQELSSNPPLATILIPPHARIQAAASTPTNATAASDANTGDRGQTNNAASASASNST
Sequence of CDK1/cyclin B (P06493 whole entry): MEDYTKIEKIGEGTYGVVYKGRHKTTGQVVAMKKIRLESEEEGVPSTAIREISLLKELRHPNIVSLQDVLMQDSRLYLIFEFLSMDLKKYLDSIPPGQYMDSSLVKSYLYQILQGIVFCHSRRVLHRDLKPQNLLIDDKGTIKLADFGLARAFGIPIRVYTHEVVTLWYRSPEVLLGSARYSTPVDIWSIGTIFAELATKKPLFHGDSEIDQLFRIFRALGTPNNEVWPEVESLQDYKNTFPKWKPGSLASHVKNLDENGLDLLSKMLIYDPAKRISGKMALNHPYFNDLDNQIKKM
Sequence of CDK1/cyclin B (P14635 whole entry partner): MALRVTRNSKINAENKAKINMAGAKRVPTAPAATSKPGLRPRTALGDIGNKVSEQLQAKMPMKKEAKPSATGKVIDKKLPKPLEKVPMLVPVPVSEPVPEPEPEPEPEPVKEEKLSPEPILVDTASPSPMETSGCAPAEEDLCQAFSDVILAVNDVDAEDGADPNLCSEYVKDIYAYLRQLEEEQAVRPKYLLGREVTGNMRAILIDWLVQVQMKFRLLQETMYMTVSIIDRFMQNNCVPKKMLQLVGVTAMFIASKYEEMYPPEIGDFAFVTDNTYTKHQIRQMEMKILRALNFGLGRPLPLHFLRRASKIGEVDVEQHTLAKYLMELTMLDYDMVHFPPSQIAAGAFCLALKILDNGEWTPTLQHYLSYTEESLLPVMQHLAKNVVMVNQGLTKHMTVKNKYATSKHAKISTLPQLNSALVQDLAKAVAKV
Sequence of Abl (Ableson tyrosine kinase) (P00519 whole entry, species assumed): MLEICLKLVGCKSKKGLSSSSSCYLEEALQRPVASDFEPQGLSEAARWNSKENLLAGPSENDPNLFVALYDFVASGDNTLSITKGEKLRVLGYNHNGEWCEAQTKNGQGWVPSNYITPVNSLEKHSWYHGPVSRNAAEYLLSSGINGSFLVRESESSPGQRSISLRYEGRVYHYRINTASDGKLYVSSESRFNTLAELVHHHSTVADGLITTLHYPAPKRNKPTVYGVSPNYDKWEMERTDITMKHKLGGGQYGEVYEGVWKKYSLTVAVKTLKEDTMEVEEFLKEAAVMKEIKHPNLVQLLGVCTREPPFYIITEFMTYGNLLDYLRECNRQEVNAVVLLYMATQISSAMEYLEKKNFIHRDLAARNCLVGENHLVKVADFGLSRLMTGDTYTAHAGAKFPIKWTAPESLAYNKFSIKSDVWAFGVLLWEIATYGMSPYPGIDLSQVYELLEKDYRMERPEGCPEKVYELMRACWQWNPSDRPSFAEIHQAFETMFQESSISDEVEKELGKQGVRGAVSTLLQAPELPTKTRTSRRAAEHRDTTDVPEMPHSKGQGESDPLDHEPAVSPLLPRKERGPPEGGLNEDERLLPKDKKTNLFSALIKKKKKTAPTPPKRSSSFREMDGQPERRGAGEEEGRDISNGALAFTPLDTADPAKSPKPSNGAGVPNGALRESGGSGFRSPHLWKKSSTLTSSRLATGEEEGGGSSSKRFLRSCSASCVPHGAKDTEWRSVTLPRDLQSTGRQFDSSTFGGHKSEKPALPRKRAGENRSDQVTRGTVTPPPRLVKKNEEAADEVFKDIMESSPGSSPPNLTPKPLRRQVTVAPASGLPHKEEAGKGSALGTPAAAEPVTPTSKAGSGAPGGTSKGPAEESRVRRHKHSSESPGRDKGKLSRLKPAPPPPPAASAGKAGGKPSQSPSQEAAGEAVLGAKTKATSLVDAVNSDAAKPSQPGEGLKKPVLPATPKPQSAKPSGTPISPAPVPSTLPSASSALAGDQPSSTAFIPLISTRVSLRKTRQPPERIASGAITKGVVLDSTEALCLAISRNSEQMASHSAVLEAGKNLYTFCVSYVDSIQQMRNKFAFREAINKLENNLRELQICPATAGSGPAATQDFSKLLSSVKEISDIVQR
Sequence of Akt/PKB (protein kinase B) (P31749 whole entry): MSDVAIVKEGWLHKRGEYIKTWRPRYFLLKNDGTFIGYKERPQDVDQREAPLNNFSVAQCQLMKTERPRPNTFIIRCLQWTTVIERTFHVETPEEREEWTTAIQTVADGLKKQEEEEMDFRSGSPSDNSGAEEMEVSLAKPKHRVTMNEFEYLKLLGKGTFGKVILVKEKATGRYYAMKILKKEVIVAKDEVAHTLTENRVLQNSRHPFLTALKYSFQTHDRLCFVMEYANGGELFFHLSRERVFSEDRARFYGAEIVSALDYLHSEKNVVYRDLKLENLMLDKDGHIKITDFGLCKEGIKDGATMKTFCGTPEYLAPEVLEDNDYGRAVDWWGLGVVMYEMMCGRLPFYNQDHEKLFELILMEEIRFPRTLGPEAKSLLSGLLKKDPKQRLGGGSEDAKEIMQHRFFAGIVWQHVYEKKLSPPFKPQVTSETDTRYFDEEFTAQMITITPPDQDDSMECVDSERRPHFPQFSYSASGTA

Row | SMILES | IC50 (CDK1/cyclin B; [4]) | IC50 (CDK2/cyclin E; [5]) | IC50 (HT29; Table 4) | IC50 (GSK-3β; [6]) | IC50 (CDK4/cyclin D1; [7]) | IC50 (A549; Table 4) | IC50 (CDK7/cyclin H; [8]) | IC50 (Saos-2; Table 4) | IC50 (CDK9/cyclin T1; [9]) | IC50 (AGS) | IC50 (WI38) | IC50 (HT29; Table 5, Colon) | IC50 (all transformed cells; [10]) | IC50 (all transformed cells; [11]) | IC50 (A549; Table 5, Lung) | IC50 (CDK7/cyclin H; [12]) | IC50 (IMR-90) | IC50 (Saos-2; Table 5, Bone osteosarcoma) | IC50 (HCT-116) | IC50 (CDK1/cyclin B; [13]) | other results
1 | Cc1nc(C)c(-c2ccnc(Nc3ccc(NC(=O)CN4CCCC4)cc3)n2)s1 [Compound 53, N-{4-[4-(2,4-Dimethyl-thiazol-5-yl)-pyrimidin-2-ylamino]-phenyl}-2-pyrrolidin-1-yl-acetamide] | 5200 nM | 520 nM | 950 nM | 23000 nM | 40 nM | 770 nM | 440 nM | 530 nM | 93 nM |  |  |  |  |  |  |  |  |  |  |  | 
2 | Cc1nc(N)sc1-c1ccnc(Nc2ccc(N3CCOCC3)cc2)n1 [Compound 1, [4-(2-Amino-4-methyl-thiazol-5-yl)-pyrimidin-2-yl]-(4-morpholin-4-yl-phenyl)-amine] |  |  | 1700 nM |  |  | 2100 nM | 30000 nM | 1900 nM |  | 1100 nM | > 5000 nM | 1100 nM | 1100 nM | 1000 nM | 1000 nM | 56000 nM | > 5000 nM | 100 nM | 900 nM |  | 
3 | Cc1nc(NC(=O)[C@H](N)[C@@H](C)O)sc1-c1ccnc(Nc2cccc([N+](=O)[O-])c2)n1 [Compound 15, (2R,3R)-2-Amino-3-hydroxy-N-{4-methyl-5-[2-(3-nitro-phenylamino)-pyrimidin-4-yl]-thiazol-2-yl}-butyramide] | 5400 nM | 130 nM | 1000 nM | 610 nM | 2000 nM | 1100 nM | 340 nM | 1900 nM | 70 nM | 1100 nM | > 5000 nM | 500 nM | 1200 nM | 900 nM | 600 nM | 390 nM | 2500 nM | 400 nM | 600 nM | 1600 nM | IC50 (CDK2/cyclin E; [14]): 150 nM; IC50 [1]: > 100000 nM; IC50 [2]: 3900 nM; IC50 (GSK-3β; [15]): 540 nM; IC50 (CDK4/cyclin D1; [16]): 1600 nM; IC50 [3]: 760 nM; IC50 (CDK9/cyclin T1; [17]): 110 nM
4 | CNc1nc(C)c(-c2ccnc(Nc3ccc(N4CCN(Cc5ccccc5)CC4)cc3)n2)s1 [Compound 11, [4-(4-Benzyl-piperazin-1-yl)-phenyl]-[4-(4-methyl-2-methylamino-thiazol-5-yl)-pyrimidin-2-yl]-amine] | 2400 nM | 260 nM | 1600 nM | 6000 nM | 9.8 nM | 2200 nM | 19 nM | 3600 nM | 1100 nM | 1300 nM | 22000 nM | 1600 nM | 1600 nM | 1100 nM | 2200 nM | 19 nM | 31000 nM | 3700 nM | 600 nM | 2400 nM | IC50 (CDK2/cyclin E; [14]): 260 nM; IC50 [1]: > 100000 nM; IC50 [2]: 56000 nM; IC50 (GSK-3β; [15]): 6000 nM; IC50 (CDK4/cyclin D1; [16]): 9.8 nM; IC50 [3]: 72000 nM; IC50 (CDK9/cyclin T1; [17]): 1100 nM
